Experimental data taken from US8748435B2, “Pyrazolo pyrimidine derivatives” (Novartis AG, priority 2011, dated 2014).
Counter-ions that a name gives are not always drawn.

Assays:
human GPR4 [1] = target: T1, human GPR4 (Homo sapiens (Human), UniProt P46093); assay: Human GPR4 binding assay ([3H]4 radioligand, membranes of 300.19 cells expressing human GPR4)
Method: a) Human GPR4 Binding Assay
(§1) Cells were grown in T175 flasks to a density of about 1×10^6 cells/mL in growth medium. The cells were harvested by centrifugation (3000 rpm for 30 minutes at 4° C.) and the pellet resuspended in ice cold buffer A (20 mM HEPES pH 7.8, 10 mM EDTA, 100 mM NaCl, 1 tab/40 mL protease inhibitor complete). […] The homogenate was centrifuged at 18000 rpm for 50 min at 4° C. and the membrane protein pellet resuspended in cold buffer A using the Polytron (2×20 seconds). The protein concentration is determined using the Bio Rad Protein Assay and human IgG as standard. The volume of the membrane protein suspension is adjusted to a final concentration of about 2 mg protein/mL. The suspension is then once again homogenized (Polytron) on ice at 25000 rpm for 20 seconds before being aliquoted and stored at −80° C.
(§2) Radio Ligand Binding Assay: Serial dilutions of compounds (stock in 10 mM DMSO) are prepared by first diluting the compounds in DMSO followed by a 1:50 dilution into assay buffer (10 mM HEPES, pH 8.0, 100 mM NaCl, 5 mM MgCl2, 1 mM CaCl2, 0.5% fatty acid-free BSA, 0.05% Tween-20). […] The desired amount of membranes (20 μg/well) is diluted with assay buffer. […] 100 μL of the membrane-suspension is added and the plate stirred for 60 minutes. […] The filter plate is washed 5 times with ice-cold wash buffer, dried and sealed at the bottom. Then 20 μL of Microscint 40 is added into each well and the top of the plate is sealed. Finally the plate is counted for 2 min/well in a TopCount NXT instrument (Packard Instruments). The data are analyzed using the GraphPad Prism™ software.

human GPR4 [2] = target: T1, human GPR4; assay: Cell-based assay for human GPR4 activity (pH-induced cAMP formation, HTRF, HeLa cells); details: HeLa cells stably expressing human GPR4, pH-induced cAMP
Method: b) Cell-Based Assay for Human GPR4 Activity
(§3) HeLa cells stably expressing human GPR4 were established by transfecting the cells with a construct containing the human GPR4 coding sequence. The cells were grown in Dulbecco's Modified Eagle Medium (DMEM)/HAM's tissue culture medium F12 (HAM's F12) supplemented with 10% fetal calf serum (FCS), 100 u/ml penicillin, 100 μg/ml streptomycin and 400 μg/ml G418 and 10 mM Hepes pH 8.0. pH-induced formation of cAMP was determined using the homogeneous time resolved fluorescence (HTRF) technology as provided by CisBio Inc. The cells were seeded in 384-well plates and cultured for 24 hours at 37° C., 5% CO2 before performing the assay. Medium was removed and 10 μl buffer A (Hepes buffered saline (HBS), 10 mM Hepes, pH 8, 2 mM 3-Isobutyl-1-methylxanthin (IBMX)) was added. For compound testing, buffer A with 2× concentrated compounds was used. Cells were incubated for 15 min at room temperature. 10 μl buffer B (HBS, 30 mM Hepes, specific pH) was added to reach the appropriate final pH for stimulation (see below) and incubation was continued for 15 min at room temperature. […] HBS: 130 mM NaCl, 0.9 mM NaH2 PO4, 5.4 mM KCl, 0.8 mM MgSO4, CaCl2 1.8 mM, 25 mM glucose, 10-30 mM Hepes. Adjustment of HBS buffers:
(§4) Compounds were diluted from fresh stock solutions at 10 mM in DMSO to 2 mM and then used for serial dilutions in DMSO.

human GPR4 [3] = target: T1, human GPR4; assay: Human GPR4 binding assay with additional human serum albumin (4% HSA); details: binding assay with 4% HSA
Method: as §1, §2
In a similar manner, a binding assay with additional human serum albumin (4% HSA) has been established.

rat GPR4 = rat GPR4 (Rattus norvegicus (Rat), UniProt Q4KLH9); assay: Rat GPR4 cAMP assay; type: cell-based; details: read-out: r cAMP IC50
Method: as §3, §4
(§5) In a similar manner, assays for the mouse (m) and rat (r) GPR4 receptors have been established.

Human H3 = Human H3 (Homo sapiens (Human), UniProt Q9Y5N1); assay: Human H3 binding assay (SPA, [3H]-R-alpha-Methylhistamine); details: 3 nM [3H]-R-alpha-Methylhistamine
Method: c) Human H3 Binding Assay
The Scintillation Proximity Binding Assay (SPA) assay was performed in a final volume of 50 μL per well in a 384-well polystyrene plate.
The final concentration of the radioligand was 3 nM. • 20 μL of a beads (PVT-WGA type A) and membranes mixed suspension in assay buffer, in order to get a final concentration of 10 μg/well of membranes and 200 μg/well of beads. As an example, 1471 μL membranes (Conc.: 5.1 mg/mL) and 1500 μL of bead suspension (Conc.: 100 mg/mL) are diluted to a final volume of 15 mL of assay buffer.
The plates were sealed and shaken at room temperature, then allowed to stand at room temperature for at least 1 hour. The plates were counted using a Perkin Elmer TopCount reader, each well being counted for 1 minute.

mouse GPR4 = mouse GPR4 (Mus musculus (Mouse), UniProt Q8BUD0); assay: Mouse GPR4 cAMP assay; type: cell-based
Method: as §3, §4, §5

[4] = radioligand [3H]4 (example 39), membranes of 300.19 cells expressing human GPR4

Sequence of mouse GPR4 (Q8BUD0 whole entry): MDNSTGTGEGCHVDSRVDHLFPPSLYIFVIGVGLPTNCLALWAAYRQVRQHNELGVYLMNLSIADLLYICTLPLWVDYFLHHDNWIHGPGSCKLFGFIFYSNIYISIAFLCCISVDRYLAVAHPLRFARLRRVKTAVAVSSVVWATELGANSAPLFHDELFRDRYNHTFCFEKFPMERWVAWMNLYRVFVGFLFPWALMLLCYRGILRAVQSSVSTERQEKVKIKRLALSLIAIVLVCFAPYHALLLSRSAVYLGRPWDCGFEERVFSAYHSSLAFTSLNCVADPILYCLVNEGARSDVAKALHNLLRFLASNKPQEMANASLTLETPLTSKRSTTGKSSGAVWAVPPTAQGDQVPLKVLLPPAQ
Sequence of rat GPR4 (Q4KLH9 whole entry): as the sequence (Q8BUD0 whole entry) above, with G8W, H51R, S339T counted along it
T1 sequence (P46093 whole entry): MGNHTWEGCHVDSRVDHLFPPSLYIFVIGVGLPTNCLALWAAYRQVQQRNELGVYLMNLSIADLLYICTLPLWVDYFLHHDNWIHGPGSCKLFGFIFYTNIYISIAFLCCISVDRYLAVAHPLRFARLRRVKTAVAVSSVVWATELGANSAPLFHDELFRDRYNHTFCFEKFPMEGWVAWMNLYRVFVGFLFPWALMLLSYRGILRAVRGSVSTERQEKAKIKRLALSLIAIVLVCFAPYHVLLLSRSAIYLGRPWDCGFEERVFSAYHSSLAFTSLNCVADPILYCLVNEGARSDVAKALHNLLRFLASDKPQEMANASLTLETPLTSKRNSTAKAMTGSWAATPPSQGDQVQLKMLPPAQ
Sequence of Human H3 (Q9Y5N1 whole entry): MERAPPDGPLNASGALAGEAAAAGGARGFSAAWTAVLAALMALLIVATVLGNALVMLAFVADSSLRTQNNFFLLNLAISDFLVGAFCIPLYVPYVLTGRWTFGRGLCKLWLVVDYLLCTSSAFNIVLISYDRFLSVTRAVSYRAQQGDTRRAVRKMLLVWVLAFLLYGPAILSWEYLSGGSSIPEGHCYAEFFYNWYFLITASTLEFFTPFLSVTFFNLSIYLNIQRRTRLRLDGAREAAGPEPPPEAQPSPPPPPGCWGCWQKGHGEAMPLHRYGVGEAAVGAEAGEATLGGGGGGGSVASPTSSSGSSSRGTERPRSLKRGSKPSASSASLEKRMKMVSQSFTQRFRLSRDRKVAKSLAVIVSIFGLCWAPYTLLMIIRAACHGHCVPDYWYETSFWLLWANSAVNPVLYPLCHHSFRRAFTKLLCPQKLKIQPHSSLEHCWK

IC50 (human GPR4 [1]; [4]) [nM]	IC50 (human GPR4 [2]) [nM]	IC50 (human GPR4 [3]) [nM]	IC50 (rat GPR4) [nM]	IC50 (Human H3) [nM]	IC50 (mouse GPR4) [nM]	IC50 (human GPR4 [1]) [nM]	IC50 (human GPR4 [3]; read-out: GPR4 4% HSA IC50) [nM]	Compound
44	31	49	338	> 30000	124	–	–	CCc1nn2c(C)cc(C)nc2c1Cc1ccc(/C=C/CC2(O)CCNCC2)cc1 [Example 3, 4-{(E)-3-[4-(2-Ethyl-5,7-dimethyl-pyrazolo[1,5-a]pyrimidin-3-ylmethyl)-phenyl]-allyl}-piperidin-4-ol]
–	37	25	931	> 30000	265	45	–	CCc1nn2c(C)cc(C)nc2c1Cc1ccc(/C=C/C2(O)CCNCC2)cc1 [Example 1, 4-{(E)-2-[4-(2-Ethyl-5,7-dimethyl-pyrazolo[1,5-a]pyrimidin-3-ylmethyl)-phenyl]-vinyl}-piperidin-4-ol]
15	45	29	811	> 30000	180	–	–	CCc1nn2c(C)cc(C)nc2c1Cc1ccc(-c2nnc(C3CCN(C(=O)[C@H](CO)NC)CC3)o2)cc1 [Example 38, (S)-1-(4-{5-[4-(2-Ethyl-5,7-dimethyl-pyrazolo[1,5-a]pyrimidin-3-ylmethyl)-phenyl]-[1,3,4]oxadiazol-2-yl}-piperidin-1-yl)-3-hydroxy-2-methylamino-propan-1-one hydrochloride]
–	33	56	1720	> 30000	253	34	–	CCc1nn2c(C)cc(C)nc2c1Cc1ccc(/C=C/CC2(O)CCN(C(=O)CNC)CC2)cc1 [Example 7, 1-(4-{(E)-3-[4-(2-Ethyl-5,7-dimethyl-pyrazolo[1,5-a]pyrimidin-3-ylmethyl)-phenyl]-allyl}-4-hydroxy-piperidin-1-yl)-2-methylamino-ethanone hydrochloride]
81	43	–	1800	> 30000	1280	–	67	CCc1nn2c(C)cc(C)nc2c1Cc1ccc(/C=C/C(=O)N2CCNCC2)cc1 [Example 18, (E)-3-[4-(2-Ethyl-5,7-dimethyl-pyrazolo[1,5-a]pyrimidin-3-ylmethyl)-phenyl]-1-piperazin-1-yl-propenone hydrochloride]
10	55	12	691	> 30000	127	–	–	CCc1nn2c(C)cc(C)nc2c1Cc1ccc(/C=C/CN2CCNCC2)cc1 [Example 14, 2-Ethyl-5,7-dimethyl-3-[4-((E)-3-piperazin-1-yl-propenyl)-benzyl]-pyrazolo[1,5-a]pyrimidine]
26	29	–	497	> 30000	384	–	–	CCc1nn2c(C)cc(C)nc2c1Cc1ccc(-n2cc(CN3CCC(N)CC3)cn2)cc1 [Example 30, 1-{1-[4-(2-Ethyl-5,7-dimethyl-pyrazolo[1,5-a]pyrimidin-3-ylmethyl)-phenyl]-1H-pyrazol-4-ylmethyl}-piperidin-4-ylamine]
19	–	12	202	> 30000	90	–	–	CCc1nn2c(C)cc(C)nc2c1Cc1ccc(OCC2CCN(C(=O)[C@H]3NCC[C@H]3O)CC2)cc1 [Example 22, {4-[4-(2-Ethyl-5,7-dimethyl-pyrazolo[1,5-a]pyrimidin-3-ylmethyl)-phenoxymethyl]-piperidin-1-yl}-((2S,3R)-3-hydroxy-pyrrolidin-2-yl)-methanone]
